# Where a name gives a salt, the structure may show the parent alone. Read-outs that look alike come from different tables or passages of the source.
# Assays:
# SUDHL5 [1] = assay: Induction of caspase-3/7 activity (Caspase-Glo 3/7), SUDHL5; type: cell-based; settings: caspase-3/7 induction, SUDHL5 cells, 3 h treatment, median
# Outline: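 DLBCL lines SUDHL5 and SUDHL10 treated with compounds for 3 h at 37 °C; caspase-3/7 activity read by Caspase-Glo 3/7 luminescence. Medium-only background subtracted; EC50 fitted with bottom fixed at 1 and top fixed at the reference compound's maximal induction.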
# SUDHL10 [2] = assay: Anti-proliferative effect (CellTiter-Glo, 72 h), SUDHL10; type: cell-based; settings: SUDHL10 cells, antiproliferation, 72 h incubation, median, read-out: Antiproli SUDHL10 [M] (median)
# Outline: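 Cells plated and incubated with compounds for 72 h at 37 °C, with a parallel day 0 reference plate for time-zero signal. Viability read by CellTiter-Glo luminescence after 10 min, measured identically on the day 0 and 72 h plates.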
# SUDHL10 [3] = assay: Induction of cytotoxicity (CellTiter-Glo, 5 h), SUDHL10
# BCL-XL = target: T1, BCL-XL (Homo sapiens, UniProt Q07817); assay: Protein-protein interaction assay BCL-XL/Bad BH3 peptide (BCL-XL assay), TR-FRET; type: binding; settings: His-BCL-XL / Bad BH3-derived peptide
# T1 construct: BCL-XL (amino acids 1-212, C-terminal fused to a hexahistidine (6×His) tag); purchased BPS Bioscience (San Diego, Calif., USA); host or cells: E. coli
# T1 sequence (Q07817 1-212): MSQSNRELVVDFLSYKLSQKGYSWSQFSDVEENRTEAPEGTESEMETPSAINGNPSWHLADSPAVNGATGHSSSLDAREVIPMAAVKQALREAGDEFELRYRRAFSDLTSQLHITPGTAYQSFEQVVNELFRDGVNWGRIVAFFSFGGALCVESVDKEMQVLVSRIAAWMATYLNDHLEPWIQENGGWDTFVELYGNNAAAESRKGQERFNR
# Method: Protein-Protein Interaction Assay: BCL-XL/Bad BH3 Peptide (BCL-XL Assay)
# The dose-dependent inhibition by the compounds described in this invention of the interaction between […] and the BH3 domain of Bad (both human) was determined using a steady state binding competition assay with time-resolved fluorescence energy transfer (TR-FRET) readout. For that purpose BCL-2 (amino acids 1-211, C-terminal fused to a hexahistidine (6×His) tag (SEQ ID NO: 3) and a synthetic Bad BH3-derived peptide of sequence Biotin-PEG2-PEG2-NLWAAQRYGRELRR-NIe-SDEFVDSFKK-amide (SEQ ID NO: 2) served as protein receptor and tracer ligand respectively. The recombinant BCL-2 protein (expressed in E. coli) was purchased from BPS Bioscience (San Diego, Calif., USA). The Bad BH3-derived peptide can be obtained from e.g. Biosyntan (Berlin, Germany).
# In the assay 11 different concentrations of each compound (0.1 nM, 0.33 nM, 1.1 nM, 3.8 nM, 13 nM, 44 nM, 0.15 μM, 0.51 μM, 1.7 μM, 5.9 μM and 20 μM) were typically measured as duplicates in the same microtiter plate. For that, 100-fold concentrated DMSO solutions were prepared by serial dilutions (1:3.4) of a 2 mM stock solution in a clear, 384-well microtiter plate (Greiner Bio-One, Frickenhausen, Germany). From there, 50 nl were transferred in a dark test plate (Greiner Bio-One. Frickenhausen, Germany). The assay was initiated by addition of 2 μl of a 2,5-fold concentrated Hs-BCL-XL solution (usually for a 1 nM end concentration in 5 μl reaction volume) in aqueous assay buffer [50 mM Tris/HCl pH 7, 100 mM sodium chloride (NaCl), 50 mM potassium fluoride (KF), 0.005% Tween-20, 2 mM DTT, 0.1% bovine gamma globulin (BGG)] to the compounds in the assay plate. This was followed by a 10-minute incubation step at 22° C. for pre-equilibration of the putative complex between His-BCL-XL and the compounds.
# The mixture was incubated in the dark for one hour at 22° C. and then overnight at 4° C. The formation of BCL-XL/Bad complexes was determined by measuring the resonance energy transfer of the anti-His- Eu-cryptate antibody to the streptavidin-XL665 present in the reaction. For that purpose, the fluorescence emission at 620 nm and 665 nm after excitation at 330-350 nm was measured in a TR-FRET measuring instrument, for instance a Rubystar or a Pherastar (both from BMG Lab Technologies, Offenburg, Germany) or a Viewlux (Perkin-Elmer). The ratio of the emission at 665 nm and at 622 nm was used as indicator of the amount of BCL-XL/Bad complexes present.
# The resulting data (ratio) were normalized, taking 0% inhibition as the mean value of control measurements (usually 32 data points) where all reagents were included. In this case 50 nl DMSO were used instead of compounds. A 100% inhibition corresponded to the mean value of control measurements (usually 32 data points) where all reagents except BCL-XL were included. IC50 values were determined by regression analysis based on a 4 parameter equation (minimum, maximum, IC50, Hill; Y=Max+(Min−Max)/(1+(X/IC50)^Hill) using the Screener Software (Genedata).
# SUDHL5 [4] = assay: Induction of cytotoxicity (CellTiter-Glo, 5 h), SUDHL5
# [5] = read-out: Cytotox SUDHL10 [M] (median), SUDHL10 cells, cytotoxicity induction, CellTiter-Glo, 5 h incubation, median
# [6] = read-out: Cytotox SUDHL5 [M] (median), SUDHL5 cells, cytotoxicity induction, CellTiter-Glo, 5 h incubation, median
# [7] = Homo sapiens, SU-DHL-5, 5 h, read-out: Cytotox SUDHL5 [M] (median), SUDHL5 cells, cytotoxicity induction, CellTiter-Glo, 5 h incubation, median
SMILES,EC50 (SUDHL5 [1]),IC50 (SUDHL10 [2]),IC50 (SUDHL10 [3]; [5]),IC50 (BCL-XL),IC50 (SUDHL5 [4]; [6]),"EC50 (SUDHL5 [1]; Homo sapiens, SU-DHL-5, 3 h)","IC50 (SUDHL10 [2]; Homo sapiens, SU-DHL10, 72 h)",IC50 (SUDHL5 [4]; [7]),"IC50 (SUDHL10 [3]; Homo sapiens, SU-DHL10, 5 h, read-out: Cytotox SUDHL10 [M] (median), SUDHL10 cells, cytotoxicity induction, CellTiter-Glo, 5 h incubation, median)"
"Cn1nc(COc2ccc(N3CCN(C(=O)C4CC4)CC3)cc2)c2c1COCCCCn1c(C(=O)O)c(CCCOc3cccc4ccccc34)c3cccc-2c31 (single isomer, unassigned; enantiomer 1) [Example 1-22, 3-({4-[4-(cyclopropylcarbonyl)piperazin-1-yl]phenoxy}methyl)-1-methyl-7-[3-(naphthalen-1-yloxy)propyl]-1,10,11,12,13,15-hexahydropyrazolo[4′,3′:9,10][1,6]oxazacycloundecino[8,7,6-hi]indole-8-carboxylic Acid (Enantiomer 1)]",1.56 µM,2.19e-06 M,2.7e-06 M,> 20 µM,1.37e-06 M,,,,
"Cc1nn(C)c2c1-c1cccc3c(CCCOc4cccc5ccccc45)c(C(=O)O)n(c13)CCCN(C)C2 (single isomer, unassigned; enantiomer 1) [Example 1-31, 7,9,11-trimethyl-1-[3-(naphthalen-1-yloxy)propyl]-4,5,6,7,8,9-hexahydropyrazolo[3′,4′:7,8][1,5]diazecino[9,10,1-hi]indole-2-carboxylic Acid-N-ethylethanamine Salt (Enantiomer 1)]",4.33 µM,4.55e-06 M,1.61e-05 M,> 20 µM,4.6e-06 M,,,,
"Cc1c2c(nn1C)COCCCCn1c(C(=O)O)c(CCCOc3cccc4ccccc34)c3cccc-2c31 (single isomer, unassigned; enantiomer 1) [Example 1-37, (+)-2,3-dimethyl-7-[3-(naphthalen-1-yloxy)propyl]-2,10,11,12,13,15-hexahydropyrazolo[4′,3′:9,10][1,6]oxazacycloundecino[8,7,6-hi]indole-8-carboxylic Acid (Enantiomer 1)]",2.44 µM,3e-06 M,8.41e-06 M,> 20 µM,1.92e-06 M,,,,
"CN1CCCn2c(C(=O)O)c(CCCOc3cccc4ccccc34)c3cccc(c32)-c2c(CN3CCOCC3)nn(C)c2C1 (single isomer, unassigned; enantiomer 1) [Example 1-43, (+)-7,9-dimethyl-11-(morpholin-4-ylmethyl)-1-[3-(naphthalen-1-yloxy)propyl]-4,5,6,7,8,9-hexahydropyrazolo[3′,4′:7,8][1,5]diazecino[9,10,1-hi]indole-2-carboxylic Acid (Enantiomer 1)]",,,1.48e-05 M,> 20 µM,,6.57 µM,8.34e-06 M,6.9e-06 M,
"CN1CCCn2c(C(=O)O)c(CCCOc3cccc4ccccc34)c3cccc(c32)-c2c(COc3ccc(N4CCN(S(C)(=O)=O)CC4)cc3)nn(C)c2C1 (single isomer, unassigned; enantiomer 1) [Example 1-46, (+)-7,9-dimethyl-11-({4-[4-(methylsulfonyl)piperazin-1-yl]phenoxy}methyl)-1-[3-(naphthalen-1-yloxy)propyl]-4,5,6,7,8,9-hexahydropyrazolo[3′,4′:7,8][1,5]diazecino[9,10,1-hi]indole-2-carboxylic Acid (Enantiomer 1)]",0.776 µM,8.61e-07 M,2.29e-06 M,> 20 µM,1.53e-06 M,,,,
"Cc1nn(C)c2c1-c1cccc3c(CCCOc4cccc5cc(F)ccc45)c(C(=O)O)n(c13)CCCCOC2 (single isomer, unassigned; enantiomer 1) [Example 019, 7-{3-[(6-fluoronaphthalen-1-yl)oxy]propyl}-1,3-dimethyl-1,10,11,12,13,15-hexahydropyrazolo[4′,3′:9,10][1,6]oxazacycloundecino[8,7,6-hi]indole-8-carboxylic Acid-N-ethylethanamine Salt (Enantiomer 1)]",1.52 µM,,3.76e-06 M,> 20 µM,1.68e-06 M,,4.45e-06 M,,
"Cc1nn(C)c2c1-c1cccc3c(CCCOc4cccc5cc(F)ccc45)c(C(=O)O)n(c13)CCCOC2 (single isomer, unassigned; enantiomer 1) [Example 047, 1-{3-[(6-fluoronaphthalen-1-yl)oxy]propyl}-9,11-dimethyl-5,6,8,9-tetrahydro-4H-pyrazolo[4′,3′:8,9][1,5]oxazecino[7,6,5-hi]indole-2-carboxylic acid-N-ethylethanamine Salt (Enantiomer 1)]",2.96 µM,3.61e-06 M,6.49e-06 M,> 20 µM,3.22e-06 M,,,,
"COCCn1nc2c(c1CN1CCOCC1)-c1cccc3c(CCCOc4cccc5ccccc45)c(C(=O)O)n(c13)CCCN(C)C2 (single isomer, unassigned; enantiomer 1) [Example 057, 10-(2-methoxyethyl)-7-methyl-11-(morpholin-4-ylmethyl)-1-[3-(naphthalen-1-yloxy)propyl]-4,5,6,7,8,10-hexahydropyrazolo[3′,4′:7,8][1,5]diazecino[9,10,1-hi]indole-2-carboxylic Acid (Enantiomer 1)]",,,,> 20 µM,,27.9 µM,1.21e-05 M,2.5e-05 M,2.39e-05 M
"Cc1c2c(nn1CCN1CCOCC1)CN(C)CCCn1c(C(=O)O)c(CCCOc3cccc4ccccc34)c3cccc-2c31 (single isomer, unassigned; enantiomer 1) [Example 060, 7,11-dimethyl-10-[2-(morpholin-4-yl)ethyl]-1-[3-(naphthalen-1-yloxy)propyl]-4,5,6,7,8,10-hexahydropyrazolo[3′,4′:7,8][1,5]diazecino[9,10,1-hi]indole-2-carboxylic Acid (Enantiomer 1)]",5.13 µM,,7.87e-06 M,> 20 µM,4.3e-06 M,,1.16e-05 M,,
"Cc1ccc2c(CCCOc3cccc4ccccc34)c(C(=O)O)n3c2c1-c1c(nn(C)c1C)CN(C)CCC3 (single isomer, unassigned; enantiomer 1) [Example 073, 7,10,11,12-tetramethyl-1-[3-(naphthalen-1-yloxy)propyl]-4,5,6,7,8,10-hexahydropyrazolo[3′,4′:7,8][1,5]diazecino[9,10,1-hi]indole-2-carboxylic Acid (Enantiomer 1)]",2.12 µM,,3.67e-06 M,> 20 µM,1.79e-06 M,,6.86e-06 M,,
